Source: patent publication US6492416B1, “4,5-diaryl-3(2H)-furanone derivatives as cyclooxygenase-2 inhibitors” (Pacific Corporation, priority 1999, dated 2002)
In brackets after ≈: the same amount, converted by molar mass.

What was measured:
COX-1 = biological target: T1, COX-1 (Mus musculus, UniProt P22437); assay: Evaluation of COX-1 activity: PGE2 formation in mouse peritoneal macrophages without aspirin and LPS treatment; format: cell-based; conditions: for IC50: read-out: IC50, μg/ml COX-1 (converted)
T1 sequence (P22437 27-602): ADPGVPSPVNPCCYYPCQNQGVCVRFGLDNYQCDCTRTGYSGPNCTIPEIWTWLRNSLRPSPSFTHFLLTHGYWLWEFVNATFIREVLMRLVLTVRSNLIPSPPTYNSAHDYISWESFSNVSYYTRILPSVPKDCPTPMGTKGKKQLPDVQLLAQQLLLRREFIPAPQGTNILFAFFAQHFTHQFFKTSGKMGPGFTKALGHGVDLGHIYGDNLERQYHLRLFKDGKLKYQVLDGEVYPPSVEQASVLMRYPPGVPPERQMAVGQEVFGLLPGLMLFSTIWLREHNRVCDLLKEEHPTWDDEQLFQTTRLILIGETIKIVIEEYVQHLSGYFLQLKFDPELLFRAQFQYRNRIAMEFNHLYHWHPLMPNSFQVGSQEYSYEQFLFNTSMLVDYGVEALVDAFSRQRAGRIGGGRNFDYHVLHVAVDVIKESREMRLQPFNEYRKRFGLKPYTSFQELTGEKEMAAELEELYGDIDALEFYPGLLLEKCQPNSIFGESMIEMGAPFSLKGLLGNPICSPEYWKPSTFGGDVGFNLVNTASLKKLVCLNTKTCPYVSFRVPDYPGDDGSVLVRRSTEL
Description: (§1) Evaluation of in vitro COX-2 and COX-1 Activity [J. Pharmacol. Exp. Ther. 166, 96 (1969)]
(§2) The abdominal skin of a C57BL/6 mouse was sanitized with 70% aqueous ethanol, and was removed without damaging the peritoneum. 5 ml of cold phosphate buffer solution (PBS) was then injected into the abdominal cavity. After a minute, the peritoneal fluid containing the macrophages was collected using a syringe and a needle. The collected fluid was centrifuged for 5 min at 1500 rpm to afford pellets of cells. The pellets were then dispersed in the RPMI-1640 culture medium containing 100 units/ml penicillin and 100 μg/ml streptomycin.
(§3) The pellets dispersed as above were treated with 500 μM aspirin in order to knock out the activity of the COX-1 enzymes in the cells. The suspension was then diluted with the RPMI-1640 medium to contain 1×10^6 cells/ml. 100 μl of the suspension was added to each well of a 96-well ELISA plate. Then the plate was incubated for 2 hrs at 37° C. under 5% CO2 in order to fix the macrophages onto the plate. The cells, which were not fixed onto the plate were removed by washing with PBS two times. The purity of macrophages obtained thereby was confirmed by differential counting. The RPMI-1640 medium containing 3% fetal bovine serum albumin was added to each well of the plate, which was followed by stimulation with 10 μg/ml lipopolysaccharide (LPS). Usually 5×10^5 cells/ml were present by this preparation. The LPS-treated suspensions were incubated for 16 hours at 37° C. under 5% CO2 to induce COX-2. Then the culture medium was removed and the macrophages were washed two times with PBS. Then 130 μl RPMI-1640 culture medium was added to each well and the macrophage solutions were incubated at 37° C. for 10 minutes, which was followed by the treatment with 10 μM arachidonic acid and an appropriate amount of compounds of this invention. The plate was incubated for another 10 minutes. The upper solution was collected using a micropipette and was subjected to determination of PGE2 amount in the solution. The amount of PGE2 present in the collected solution was determined either by a known radio-immuno assay or by a known enzyme-immunoassay [Methods in Enzymol. 86, 258 (1982); Methods in Enzymol. 187, 24 (1990)]. The extent of COX-2 inhibition by a compound of the present invention was calculated by assuming, that the amount of PGE2 formed with the treatment of 10 μg/ml arachidonic acid was used is the maximum possible amount of PGE2, and that the amount of PGE2 formed without the treatment of arachidonic acid is the minimum possible amount of PGE2.
In the evaluation of COX-1 inhibitory activity by a compound of the present invention, the same procedures employed for evaluation of COX-2 activity were employed, except omitting the following two steps: 1) the treatment with aspirin for knockout of COX-1 activity and 2) treatment with LPS for induction of COX-2.
(§4) In order to determine IC50 for a compound of this invention, enzymatic activities were measured at multiple concentrations of compounds of this invention around IC50 of the compound. Usually enzymatic activities at 4˜5 concentrations were measured to calculate out IC50 for a compound of this invention.

COX-2 = biological target: T2, COX-2 (Mus musculus, UniProt Q05769); assay: Evaluation of COX-2 activity: PGE2 formation in aspirin-treated, LPS-stimulated mouse peritoneal macrophages; format: cell-based; conditions: for IC50: read-out: IC50, μg/ml COX-2 (converted)
T2 sequence (Q05769 18-604): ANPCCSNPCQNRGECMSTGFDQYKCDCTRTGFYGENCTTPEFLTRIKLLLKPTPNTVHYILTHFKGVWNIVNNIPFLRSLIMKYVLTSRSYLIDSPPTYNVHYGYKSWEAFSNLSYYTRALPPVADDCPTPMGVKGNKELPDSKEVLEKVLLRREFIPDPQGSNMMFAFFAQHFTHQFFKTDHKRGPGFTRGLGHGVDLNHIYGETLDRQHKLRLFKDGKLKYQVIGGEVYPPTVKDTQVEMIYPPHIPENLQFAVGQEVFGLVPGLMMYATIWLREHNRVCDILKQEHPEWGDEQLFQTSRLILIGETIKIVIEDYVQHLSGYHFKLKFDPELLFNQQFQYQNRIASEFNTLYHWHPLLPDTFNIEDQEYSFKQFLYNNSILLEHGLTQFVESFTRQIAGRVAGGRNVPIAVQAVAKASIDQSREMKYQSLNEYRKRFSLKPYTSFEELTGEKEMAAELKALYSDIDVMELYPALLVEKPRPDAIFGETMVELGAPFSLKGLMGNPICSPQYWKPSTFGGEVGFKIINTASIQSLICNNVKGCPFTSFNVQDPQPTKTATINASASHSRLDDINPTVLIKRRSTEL
Description: as §1, §2
as §3, with “The purity of macrophages obtained thereby was confirmed by differential counting.” left out, “Usually 5×10^5 cells/ml were present by this preparation.” left out
as §4

IC50, μg/ml COX-1 (COX-1) [µg/mL] | melting point [°C] | IC50, μg/ml COX-2 (COX-2) [µg/mL] | IC50 (COX-1) [µM] | IC50 (COX-2) [µM] | SMILES
5 (≈ 12.5 µM) | 84 to 85 | 0.002 (≈ 0.00502 µM) |  |  | CCCCc1ccc(C2=C(c3ccc(S(C)(=O)=O)cc3)OC(C)(C)C2=O)cc1 [Example 97]
20 (≈ 52.9 µM) | 141 to 142 | 0.03 (≈ 0.0793 µM) |  |  | CC1(C)OC(c2ccc(S(C)(=O)=O)cc2)=C(c2cc(F)ccc2F)C1=O [Example 103]
100 (≈ 279 µM) | 150 to 152 | 0.3 (≈ 0.837 µM) |  |  | CC1(C)OC(c2ccc(S(C)(=O)=O)cc2)=C(c2ccc(O)cc2)C1=O [Example 104, 2,2-Dimethyl-4-(4-hydroxyphenyl)-5-{4-(methylsulfonyl)phenyl}-3(2H)-furanone]
50 (≈ 140 µM) | 182 to 183 | 0.03 (≈ 0.0837 µM) |  |  | CC1(C)OC(c2ccc(S(C)(=O)=O)cc2)=C(c2ccccc2O)C1=O [Example 105]
30 (≈ 79.7 µM) | 168 to 170 | 0.2 (≈ 0.531 µM) |  |  | CC1(C)OC(c2ccc(S(C)(=O)=O)cc2)=C(c2ccc(C=O)s2)C1=O [Example 121]
3 (≈ 8.28 µM) | 141 to 142 | 0.03 (≈ 0.0828 µM) |  |  | Cc1ccc(C2=C(c3ccc(S(C)(=O)=O)cc3)OC(C)(C)C2=O)s1 [Example 122]
0.12 (≈ 0.291 µM) | 208 to 209 | 0.001 (≈ 0.00243 µM) |  |  | CC1(C)OC(c2ccc(S(N)(=O)=O)cc2)=C(c2ccc(Cl)c(Cl)c2)C1=O [Example 127]
>10 | 259 to 260 | 0.055 (≈ 0.147 µM) |  |  | COc1cccc(C2=C(c3ccc(S(N)(=O)=O)cc3)OC(C)(C)C2=O)c1 [Example 135]
1.94 (≈ 5.11 µM) | 210 to 211 | 0.0067 (≈ 0.0177 µM) |  |  | CC1(C)OC(c2ccc(S(N)(=O)=O)cc2)=C(c2ccc(F)c(F)c2)C1=O [Example 138]
1.01 (≈ 2.45 µM) | 209 to 210 | 0.0087 (≈ 0.0211 µM) |  |  | CC1(C)OC(c2ccc(S(N)(=O)=O)cc2)=C(c2cc(Cl)cc(Cl)c2)C1=O [Example 149]
>10 | 164 to 165 | 0.0188 (≈ 0.0523 µM) |  |  | CC1(C)OC(c2ccc(S(N)(=O)=O)cc2)=C(c2ccc(O)cc2)C1=O [Example 151]
>10 | 156 to 157 | 0.057 (≈ 0.171 µM) |  |  | CC1(C)OC(c2ccc(S(N)(=O)=O)cc2)=C(c2ccco2)C1=O [Example 160]
50 (≈ 161 µM) | 109 to 110 | 3 (≈ 9.66 µM) |  |  | CSc1ccc(C2=C(c3ccccc3)C(=O)C(C)(C)O2)cc1 [Example 167]
 | 108 to 109 |  | 80.1 | 0.801 | CCC1(C)OC(c2ccc(S(C)(=O)=O)cc2)=C(c2ccccc2F)C1=O (stereo not drawn) [Example 188]
 | 48 to 49 |  | 8.1 | 0.081 | CCC1(C)OC(c2ccc(S(C)(=O)=O)cc2)=C(c2cccc(C)c2)C1=O (stereo not drawn) [Example 193]
 | 45 to 46 |  | 47.1 | 0.118 | CCC1(C)OC(c2ccc(S(C)(=O)=O)cc2)=C(c2cccc(C(F)(F)F)c2)C1=O (stereo not drawn) [Example 194]
 | 168 to 170 |  | 6.54 | 0.0654 | CCC1(C)OC(c2ccc(S(C)(=O)=O)cc2)=C(c2ccc(Cl)c(C(F)(F)F)c2)C1=O (stereo not drawn) [Example 198]
 | 158 to 160 |  | 7.42 | 0.0742 | CCC1(C)OC(c2ccc(S(C)(=O)=O)cc2)=C(c2ccc(OC)c(F)c2)C1=O (stereo not drawn) [Example 214]
10.7 (≈ 27.6 µM) | 69 to 70 | 0.0097 (≈ 0.025 µM) |  |  | CCC1(C)OC(c2ccc(S(N)(=O)=O)cc2)=C(c2cccc(OC)c2)C1=O (stereo not drawn) [Example 236]
3 (≈ 7.8 µM) | 96 to 97 | 0.03 (≈ 0.078 µM) |  |  | CCC1(CC)OC(c2ccc(S(C)(=O)=O)cc2)=C(c2ccc(C)cc2)C1=O [Example 245]
3 (≈ 6.84 µM) | 121 to 122 | 0.03 (≈ 0.0684 µM) |  |  | CCC1(CC)OC(c2ccc(S(C)(=O)=O)cc2)=C(c2ccc(C(F)(F)F)cc2)C1=O [Example 246]
3 (≈ 7.09 µM) | 173 to 174 | 0.03 (≈ 0.0709 µM) |  |  | CCC1(CC)OC(c2ccc(S(C)(=O)=O)cc2)=C(c2ccc(F)c(Cl)c2)C1=O [Example 254]
5 (≈ 12.4 µM) | 127 to 128 | 0.03 (≈ 0.0742 µM) |  |  | CS(=O)(=O)c1ccc(C2=C(c3cc(F)cc(F)c3)C(=O)C3(CCCC3)O2)cc1 [Example 256]
50 (≈ 119 µM) | 96 to 99 | 0.03 (≈ 0.0716 µM) |  |  | CS(=O)(=O)c1ccc(C2=C(c3cccc(Cl)c3)C(=O)C3(CCOCC3)O2)cc1 [Example 263]
